Primed or numbered codes have the meaning given here. The star is where a group is joined. Mca = COc1ccc2c(CC(=O)*)cc(=O)oc2c1; Dnp′ = not defined here
What was measured:
[1] = molecular target: T1, Calpain 1 (Homo sapiens, UniProt P07384); test: Assay of specificity of autolytic-site peptide cleavage (FRET fluorescence) by commercial calpain 1; type: biochemical; settings: calpain 1, human erythrocytes; 10 mM CaCl2; peptide 1.9 μM; 37° C.; FIG. 2
T1 construct: Calpain 1: human erythrocytes (Calbiochem); purchased Calbiochem; host or cells: human erythrocytes
T1 sequence (P07384 1-714): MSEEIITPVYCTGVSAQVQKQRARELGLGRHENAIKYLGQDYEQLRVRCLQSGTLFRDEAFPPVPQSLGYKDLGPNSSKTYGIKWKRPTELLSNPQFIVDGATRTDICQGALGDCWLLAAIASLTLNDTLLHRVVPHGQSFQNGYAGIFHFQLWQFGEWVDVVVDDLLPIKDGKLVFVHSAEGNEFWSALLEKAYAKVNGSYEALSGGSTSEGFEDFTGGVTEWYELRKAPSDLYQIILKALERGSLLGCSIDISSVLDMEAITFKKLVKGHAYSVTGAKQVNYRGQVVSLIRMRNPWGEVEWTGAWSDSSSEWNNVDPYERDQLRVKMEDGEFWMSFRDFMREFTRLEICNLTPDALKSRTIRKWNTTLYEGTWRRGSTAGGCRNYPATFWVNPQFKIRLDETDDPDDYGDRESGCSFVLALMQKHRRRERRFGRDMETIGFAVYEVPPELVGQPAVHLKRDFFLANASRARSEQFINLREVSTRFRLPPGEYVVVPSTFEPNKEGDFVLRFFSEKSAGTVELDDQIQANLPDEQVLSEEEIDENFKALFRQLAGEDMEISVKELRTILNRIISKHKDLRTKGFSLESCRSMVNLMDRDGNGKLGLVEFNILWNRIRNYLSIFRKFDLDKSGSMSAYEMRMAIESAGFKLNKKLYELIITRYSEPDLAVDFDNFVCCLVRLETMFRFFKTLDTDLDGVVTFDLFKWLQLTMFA
T1 sequence (P04632 1-268 partner): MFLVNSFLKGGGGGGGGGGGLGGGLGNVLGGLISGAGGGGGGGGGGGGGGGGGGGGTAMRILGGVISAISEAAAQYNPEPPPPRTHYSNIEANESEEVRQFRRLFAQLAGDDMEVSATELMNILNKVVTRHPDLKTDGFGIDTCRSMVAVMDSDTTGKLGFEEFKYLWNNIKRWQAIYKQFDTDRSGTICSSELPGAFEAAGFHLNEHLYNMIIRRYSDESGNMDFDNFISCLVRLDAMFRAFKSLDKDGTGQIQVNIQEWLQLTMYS
Experimental: (§1) 1/ Fluorometer: SpectraMax Gemini XS Microplate fluoro-meter (molecular Devices).
Calpain 1: human erythrocytes (Calbiochem)
(§2) Final volume of 200 μl; calcium (CaCl2) 10 mM final concentration; fluorescent peptides 1.9 μM final concentration.
(§3) The reaction is carried out at 37° C., either over one hour (with in this case measurement of fluorescence every 50 seconds) or over 6 hours (measurement every 2 minutes).
(§4) The medium is agitated between each measurement. The wavelengths used for detecting the fluorescence of the peptides are:
(§5) Excitation wavelengths of Mca: 325 nm.
(§6) Emission wavelengths of […]: 392 nm.
(§7) Resuspension buffer for commercial calpains: 100 mM NaCl, 5 mM EDTA, 50 Mm TrisHCl, 5 mM β-mercaptoethanol, 40% glycerol, pH=7.8. Storage at ambient temperature. Resuspension buffer for the fluorescent peptides: the peptides are resuspended at 1 mg/ml in 100% DMSO.
(§8) Reaction buffer: 100 mM NaCl, 50 mM HEPES, 10 mM DTT, 1 mM EDTA, 10% glycerol, 0.1% CHAPS, 100 ng/μl BSA, pH=7.4, filtration. Storage at ambient temperature.
(§9) Before verifying whether calpain 3 can cleave the peptides corresponding to its autolytic sites, a first assay consisted in verifying that these peptides (site 1, site 2, site 3) could not be cleaved by other proteases, in particular by ubiquitous calpains (see FIG. 2).

[2] = test system: calpain 3; test: Cleavage of autolytic-site peptides by extracts of normal (+/+) or calpain 3-deficient (−/−) mouse quadriceps; type: biochemical; settings: quadriceps lysates, over 6 hours; FIG. 7
Experimental: as §2, §3, §5, §6, §8
Principle: The muscles are ground for the purpose of preparing protein extracts the properties of which may then be studied.
Material: Quadriceps of normal mice and of calpain 3-deficient mice.
The muscles are ground in liquid nitrogen. The ground material is resuspended in the lysis buffer (cf. composition in the cell lysis protocol above) in a proportion of 19 μl of lysis buffer per milligram of ground tissue.
The buffer is allowed to act for 10 minutes in ice. Centrifugation is carried out at 10 000 g for 10 minutes at 4° C.
(§10) The supernatant is recovered and stored at −20° C.
Activity assays were also carried out on lysates of muscles from mice deficient or not deficient in calpain 3. The assays were carried out using quadriceps lysates (FIG. 7).

[3] = test system: calpain 3; test: Cleavage of autolytic-site peptides by extracts of C2C12 cells transfected or not transfected with the plasmid encoding calpain 3; type: biochemical, murine; settings: FIG. 3; for difference in cleavage activity between calpain 3-transfected and untransfected cells: C2C12 extracts, efficiency of transfection less than 10%; for activity of C2C12 extracts on the peptide (fluorescence): transfected or untransfected C2C12 extracts
Experimental: as §2, §3, §5, §6, §8
Cell Lines Used: C2C12: murine myoblasts;
Medium used for C2C12: DMEM+10% FCS
The desired cells are trypsinized and then the wells are seeded in such a way that the cells are at 50-80% confluency the following day.
Allow the cells to grow at 37° C./7% CO2.
(§11) Principle: The animal cells, which may or may not be transfected, are lysed for the purpose of preparing protein extracts the properties of which may be studied.
(§12) The culture medium is removed from the wells and the wells are washed with PBS (phosphate buffered Dulbecco solution (without calcium, or magnesium, or sodium bicarbonate)—Gibco BRL).
(§13) The cells are harvested and centrifuged at 500 g for 10 min at 4° C.
(§14) The supernatant is removed and the cells are taken up in the lysis buffer (50 mM HEPES, 1 mM DTT, 0.1 mM EDTA, 0.1% CHAPS, pH=7.4) in a proportion of 700 μl of lysis buffer per well.
(§15) The buffer is allowed to act at 4° C. for 5 minutes. Centrifugation is carried out at 10 000 g/10 minutes/4° C.
as §10
It is known that calpain 3 has greater stability in muscle cells due to the presence of titin. For the purpose of proving that calpain 3 could cleave its own autolytic sites, it was therefore overexpressed in C2C12 cells by transfecting these cells with a plasmid encoding calpain 3. A control transfection with pECFP was carried out at the same time as the transfection with the plasmid encoding calpain 3. The efficiency of transfection on the C2C12s is less than 10%. The proteins were then extracted and their activity was assayed on the autolytic sites (FIG. 3).

[4] = molecular target: T2, Calpain 2 (Rattus norvegicus, UniProt Q07009); test: Assay of specificity of autolytic-site peptide cleavage (FRET fluorescence) by commercial calpain 2; type: biochemical; settings: calpain 2, rat recombinant; 10 mM CaCl2; peptide 1.9 μM; 37° C.; FIG. 2
T2 construct: purchased Calbiochem; host or cells: E. coli
T2 sequence (Q07009 1-700): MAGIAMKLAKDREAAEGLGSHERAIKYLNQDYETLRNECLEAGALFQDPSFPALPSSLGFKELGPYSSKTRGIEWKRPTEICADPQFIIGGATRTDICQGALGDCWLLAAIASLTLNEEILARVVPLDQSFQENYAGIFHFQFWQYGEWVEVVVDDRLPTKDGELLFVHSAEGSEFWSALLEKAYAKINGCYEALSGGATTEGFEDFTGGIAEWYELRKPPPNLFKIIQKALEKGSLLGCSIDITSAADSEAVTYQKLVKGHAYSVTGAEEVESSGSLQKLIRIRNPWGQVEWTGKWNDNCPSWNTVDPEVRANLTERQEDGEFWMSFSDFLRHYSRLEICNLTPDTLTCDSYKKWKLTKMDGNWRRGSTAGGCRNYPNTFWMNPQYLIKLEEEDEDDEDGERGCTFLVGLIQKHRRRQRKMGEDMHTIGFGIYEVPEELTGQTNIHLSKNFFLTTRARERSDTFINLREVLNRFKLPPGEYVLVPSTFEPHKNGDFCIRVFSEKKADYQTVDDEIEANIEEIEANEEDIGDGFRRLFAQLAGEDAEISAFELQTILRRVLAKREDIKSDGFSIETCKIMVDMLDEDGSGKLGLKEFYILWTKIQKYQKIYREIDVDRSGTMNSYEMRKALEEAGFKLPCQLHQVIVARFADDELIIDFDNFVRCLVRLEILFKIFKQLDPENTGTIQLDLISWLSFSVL
T2 sequence (Q64537 87-270 partner limits assumed): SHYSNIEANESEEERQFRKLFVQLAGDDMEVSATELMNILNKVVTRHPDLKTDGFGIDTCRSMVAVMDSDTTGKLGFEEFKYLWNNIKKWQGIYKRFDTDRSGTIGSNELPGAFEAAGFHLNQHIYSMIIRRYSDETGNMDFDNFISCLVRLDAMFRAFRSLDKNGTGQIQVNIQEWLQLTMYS
Experimental: as §1
Calpain 2: rat, recombinant, E. coli (Calbiochem)
as §2, §3, §4, §5, §6, §7, §8, §9

[5] = test system: calpain 3; test: Cleavage of autolytic-site peptides by extracts of normal (+/+) or calpain 3-deficient (−/−) mouse myoblasts; type: biochemical; settings: myoblast extracts; for cleavage activity on the peptide / difference in cleavage activity between +/+ and −/− cells: reaction over 1 h, FIG. 4; for cleavage activity, +/+ versus −/− cell extracts: reaction over 6 h, FIG. 6
Experimental: as §2, §3, §5, §6, §8, §11, §12, §13, §14, §15, §10
The system is then assayed on extracts of cell cultures deficient or not deficient in calpain 3. To do this, mice deficient for the calpain 3 gene, for which myogenic cell cultures have been derived [Richard, 2000], are used. Extracts of cultures of calpain 3-deficient muscle cells (−/−cells) can therefore be compared with extracts of cultures of normal muscle cells (+/+cells). Initially, the assay was carried out on undifferentiated cells (myoblasts) (FIG. 4).

[6] = test system: calpain 3; test: Cleavage of autolytic site 3 peptide by extracts of normal (+/+) or calpain 3-deficient (−/−) mouse myotubes; type: biochemical; settings: myotube extracts; FIG. 5
Experimental: as §2, §3, §5, §6, §8, §11, §12, §13, §14, §15, §10
Specifically, calpain 3 is theoretically expressed more in myotubes than in myoblasts.

Substance | cleavage activity on the peptide (fluorescence over time vs peptide without enzyme) [1] | activity of cleavage, +/+ versus −/− tissue extracts [2] | difference in cleavage activity between calpain 3-transfected and untransfected cells [3] | activity of C2C12 extracts on the peptide (fluorescence) [3] | cleavage activity on the peptide (fluorescence over time vs peptide without enzyme) [4] | cleavage activity on the peptide [5] | cleavage activity, +/+ versus −/− cell extracts [5] | cleavage activity, −/− versus +/+ cell extracts [6] | difference in cleavage activity between +/+ and −/− cells [5]
Mca-NMDNISLL-Dnp [site 2] | no cleavage activity | by the +/+ tissue extracts is greater than that of the −/−tissue extracts | no difference can be detected | slight increase in fluorescence | no cleavage activity | No cleavage activity could be detected | greater in extracts of +/+cells | – | –
Mca-PVQYETR-Dnp (Mca-PVQYETR-{Dnp′}) [site 3, fluorescent FRET peptide of calpain 3 autolytic site 3, Mca donor and Dnp acceptor] | no cleavage activity | by the −/−tissue extracts is greater than that of the +/+tissue extracts | greater in the transfected cells | – | no cleavage activity | Cleavage activity is detected | greater in extracts of −/−cells than in extracts of +/+cells | in the extracts of −/−cells is greater than in the extracts of +/+cells | no difference in activity is visible
Mca-NMTYGTS-Dnp (Mca-NMTYGTS-{Dnp′}) [site 1, fluorescent FRET peptide of calpain 3 autolytic site 1, Mca donor and Dnp acceptor] | no cleavage activity | by the +/+ tissue extracts is greater than that of the −/−tissue extracts | no difference can be detected | slight increase in fluorescence | no cleavage activity | low cleavage activity | greater in extracts of +/+cells | – | very small
